# From paper PMC6112376, “Comprehensive Analyses and Prioritization of Tox21 10K Chemicals Affecting Mitochondrial Function by in-Depth Mechanistic Studies” (Environmental Health Perspectives, 2018)
# Like-named read-outs stand apart in the source and are kept apart here.
# How the values were obtained:
# [1] = test system: Caenorhabditis elegans (Bristol N2); conditions: in vivo
# [2] = test system: Nrf2/ARE (ARE-bla HepG2 cells); assay: ARE β-lactamase reporter gene assay; format: cell-based, human
# [3] = test system: p53 (p53-bla HCT-116 cells); assay: p53 β-lactamase reporter gene assay; format: cell-based, human
# rat primary hepatocytes [4] = assay: MMP assay in rat primary hepatocytes; conditions: read-out: Rat hepatocytes IC50 (MMP)
# [5] = test system: isolated rat liver mitochondria; assay: Oxygen consumption, Clark-type oxygen electrode; format: biochemical
# rat primary hepatocytes [6] = test system: rat primary hepatocytes
# [7] = test system: Caenorhabditis elegans strain PE255; assay: In vivo C. elegans ATP status assay; conditions: in vivo
# HepG2 cells [8] = assay: Oxygen consumption, Seahorse XF24 analyzer; format: cell-based, human
# [9] = test system: HeLa cells expressing YFP-Parkin; assay: Parkin translocation assay; format: cell-based, human
# hNSC = assay: MMP assay in human neural stem cells (hNSC); format: cell-based
# HepG2 cells [10] = assay: Intracellular ATP content (cell viability) assay; format: cell-based, human
# [11] = test system: Caenorhabditis elegans strain PE255; conditions: in vivo
# HepG2 cells [12] = assay: ROS-Glo hydrogen peroxide (ROS) assay; format: cell-based, human
# HepG2 cells [13] = test system: HepG2 cells
# [14] = test system: Caenorhabditis elegans (Bristol N2); assay: C. elegans larval development and growth assay; conditions: in vivo
compound,measurement,setting,value
"N#CC(C#N)=NNc1ccc(OC(F)(F)F)cc1 [FCCP, carbonyl cyamide 4-(trifluoromethoxy)phenylhydrazone, reference compound]","LEC (lowest effect concentration), larval growth assay",[1],< 10 µM
same,ARE (HepG2) EC50,[2],Inactive
same,p53 (HCT-116) EC50,[3],Inactive
same,IC50,rat primary hepatocytes [4],0.35 µM
same,Potential Mechanism,[5],"Uncoupler at lower concentrations (0.032-0.16 µM), and Uncoupler + inhibitor at high concentrations (0.8 - 100 µM)"
same,concentration at which RCR began to decrease,[5],32 nM
same,concentration at which RCR reached unity (complete uncoupling),[5],4 µM
same,"glutamate/malate-driven state 4 respiration, maximal increase over the baseline level",[5],approximately 4 fold
same,"succinate-driven state 4 respiration, maximal response over the baseline level",[5],2.6 fold
same,uncoupler effect at (concentration) in the oxygen consumption assay,[5],0.032 µM
same,"I-ADP, % of control (O2 consumption rate)",[5]; 0.0064 µM,94 (46.6) % of control
same,"I-sub, % of control (O2 consumption rate)",[5]; 0.0064 µM,108 (14.9) % of control
same,"II-ADP, % of control (O2 consumption rate)",[5]; 0.0064 µM,96 (85.4) % of control
same,"II-sub, % of control (O2 consumption rate)",[5]; 0.0064 µM,90 (24.4) % of control
same,"I-ADP, % of control (O2 consumption rate)",[5]; 0.032 µM,100 (49.4) % of control
same,"I-sub, % of control (O2 consumption rate)",[5]; 0.032 µM,131 (18.2) % of control
same,"II-ADP, % of control (O2 consumption rate)",[5]; 0.032 µM,96 (85.4) % of control
same,"II-sub, % of control (O2 consumption rate)",[5]; 0.032 µM,126 (34.2) % of control
same,"I-ADP, % of control (O2 consumption rate)",[5]; 0.16 µM,115 (56.7) % of control
same,"I-sub, % of control (O2 consumption rate)",[5]; 0.16 µM,251 (34.8) % of control
same,"II-ADP, % of control (O2 consumption rate)",[5]; 0.16 µM,97 (86.6) % of control
same,"II-sub, % of control (O2 consumption rate)",[5]; 0.16 µM,260 (70.2) % of control
same,"I-ADP, % of control (O2 consumption rate)",[5]; 0.8 µM,125 (61.6) % of control
same,"I-sub, % of control (O2 consumption rate)",[5]; 0.8 µM,386 (53.5) % of control
same,"II-ADP, % of control (O2 consumption rate)",[5]; 0.8 µM,67 (59.7) % of control
same,"II-sub, % of control (O2 consumption rate)",[5]; 0.8 µM,247 (66.9) % of control
same,"I-ADP, % of control (O2 consumption rate)",[5]; 4 µM,74 (36.5) % of control
same,"I-sub, % of control (O2 consumption rate)",[5]; 4 µM,264 (36.5) % of control
same,"II-ADP, % of control (O2 consumption rate)",[5]; 4 µM,44 (39.6) % of control
same,"II-sub, % of control (O2 consumption rate)",[5]; 4 µM,189 (51.0) % of control
same,"I-ADP, % of control (O2 consumption rate)",[5]; 20 µM,73 (36.0) % of control
same,"I-sub, % of control (O2 consumption rate)",[5]; 20 µM,278 (38.5) % of control
same,"II-ADP, % of control (O2 consumption rate)",[5]; 20 µM,39 (34.6) % of control
same,"II-sub, % of control (O2 consumption rate)",[5]; 20 µM,165 (44.6) % of control
same,"I-ADP, % of control (O2 consumption rate)",[5]; 100 µM,86 (39.1) % of control
same,"I-sub, % of control (O2 consumption rate)",[5]; 100 µM,263 (40.0) % of control
same,"II-ADP, % of control (O2 consumption rate)",[5]; 100 µM,38 (27.2) % of control
same,"II-sub, % of control (O2 consumption rate)",[5]; 100 µM,98 (30.8) % of control
same,Rat hepatocytes (efficacy) (MMP),rat primary hepatocytes [6],0.35±0.06 ( −95.4±4.65 ) %
same,"LEC LUM: lowest effect concentration for luminescence, a measure of nematode ATP content",[7],5 µM
same,Activity in oxygen consumption,HepG2 cells [8],Uncoupler+inhibitor
same,Parkin recruitment,[9],Active
same,Parkin translocation into mitochondria (in words),[9],significantly increased Parkin translocation into mitochondria
same,hNSC (efficacy) (MMP),hNSC,0.27±0.08 ( −94.2±2.36 ) %
same,IC50,hNSC; read-out: hNSC IC50 (MMP),0.27 µM
same,"ATP (HepG2, galactose) (efficacy)",HepG2 cells [10],4.25±0.97 ( −91.9±3.75 ) %
same,"ATP (HepG2, glucose) (efficacy)",HepG2 cells [10],2.90±0.72 ( −90.1±9.46 ) %
same,IC50,"HepG2 cells [10]; read-out: ATP (HepG2, galactose) IC50",4.25 µM
same,IC50,"HepG2 cells [10]; read-out: ATP (HepG2, glucose) IC50",2.9 µM
same,"LEC (lowest effect concentration), ATP assay",[11],< 10 µM
same,ROS (HepG2) (efficacy),HepG2 cells [12],2.49±0.45 ( 35.9±5.66 ) %
same,EC50,HepG2 cells [12]; read-out: ROS (HepG2) EC50,2.49 µM
same,HepG2 (efficacy) Galactose (MMP),HepG2 cells [13],1.12±0.33 ( −94.6±1.13 ) %
same,HepG2 (efficacy) Glucose (MMP),HepG2 cells [13],1.05±0.38 ( −95.8±2.94 ) %
same,IC50,HepG2 cells [13]; read-out: HepG2 IC50 Galactose (MMP),1.12 µM
same,IC50,HepG2 cells [13]; read-out: HepG2 IC50 Glucose (MMP),1.05 µM
same,"LEC EXT: lowest effect concentration for extinction, a measure of nematode size",[14],2.5 µM
